Experimental data as given in patent US20230101743A1, “SUBSTITUTED TRIAZINE COMPOUNDS AND USES THEREOF” (MUSC FOUNDATION FOR RESEARCH DEVELOPMENT, priority 2020, published 2023).

Key:
[1] = Solubilities in water and 1 x PBS buffer (UV-vis); type: physicochemical; settings: 25° C.
Protocol: The molar extinction co-efficients of exemplary cholesterol lowering compounds were measured in 1 x PBS buffer. The compounds were first dissolved in dimethyl sulfoxide. Solutions with a 0.5 mg/ml concentration were then prepared in DMSO. These solutions were diluted further with 1 x PBS by 100-fold, resulting in solutions with a 5 ug/ml concentration. The resulted diluted solutions were then measured and scanned using a UV-vis spectrophotometer for ultra-violet absorbances between 240 nm to 400 nm, using a UV 96-well microplate. The maximum UV absorbances and corresponding wavelengths were recorded (Table 1). The absorbance values were subtracted by that of a blank, 1 x PBS buffer containing […]. The volume of the solutions for UV measurements was 300 ul and the depth of the solutions was 0.7 cm. The molar extinction co-efficients were then calculated based on formula
The solubilities of the exemplary cholesterol lowering compounds were measured in water and 1 x PBS buffer. The compounds were first stirred with water and 1 x PBS buffer individually at room temperature for 1 h. The suspensions were then centrifuged for 2 min. The top clear solutions were filtered through filter paper, resulting in mother liquids, which were centrifuged again and diluted with 1 x PBS buffer for 10-fold for the solubilities in water and 100-fold the solubilities in 1 x PBS buffer. The resulted solutions were measured using a UV-vis spectrophotometer for UV absorbances with the maximum absorbances. The values were subtracted by that of a blank, 1 x PBS buffer. The corrected absorbances were then used to calculate the corresponding concentrations using the formula (1) and extinction coefficients (Table 1) shown above. The individual concentrations were then used to calculate the solubilities in 1.0 mL of water and 1 x PBS buffer.
The compounds were dissolved in DMSO to either 50 mg/ml, 10 mg/ml or 5 mg/ml solutions, which were diluted to 0.5 mg/ml with DMSO. These solutions were then diluted to 5 ug/ml with 1 x PBS buffer. The resulted solutions were then measured in a UV-vis spectrophotometer for UV scanning from 240 nm to 400 nm at 25° C. The absorbance values were subtracted by that of a blank, 1 x PBS buffer containing DMSO. The total volume of the solutions was 300 uL and the path length for each well was 0.7 cm in a UV 96-well plate. The extinction coefficients of the compounds were then calculated based on molar concentrations and the corrected UV absorbances at the maximum absorption (Table 1).
The mixtures wer stirred for 1 h at room temperature, transferred to 1.5 mL Eppendorf tubes, and centrifuged for 2 min. The clear solutions were filtered through filter papers, affording clear solutions, which were centrifuged again for 2 min. The top clear solutions were diluted by 1 x PBS buffer by 10-fold for the solubilities in water and 100-fold for the solubilities in 1 x PBS buffer. The new clear solutions were then measured individually using a UV-vis spectrophotometer and a UV 96-well microplate. The absorbance values were subtracted by that of a blank, 1 x PBS buffer. Concentrations and solubilities of the compounds were then calculated using their extinct coefficients and the corrected UV absorbances at the maximum absorptions (Table 1).

APOA = assay: Secreted APOA ELISA in iPSC-derived hepatocytes; type: cell-based, human; settings: 2 μg/mL, 8 to 48 hours
Protocol: E. Human iPSC-derived hepatocytes were treated with 2 μg/mL of DL-1 from 8 to 48 hours. Albumin, APOPA, and APOB level in the culture medium were determined via ELISA. All secreted proteins were compared to non-treated cells. In FIG. 5, accumulated APOB in the medium from different time-point was measured and normalized to albumin level. In FIG. 6, APOA, APOB, and albumin in the medium at the indicated times were compared to control. […] Data are shown as mean±SEM of four replicates (n=4); *p<0.05, **p<0.01.
Human APOB level was determined via a commercial sandwich ELISA (3715-1H-6; Mabtech), and the signal was detected using the HRP-TMB system. The concentration of APOB was determined using a standard curve with four parameters logistic regression model. Human APOA level was determined via a commercial sandwich ELISA (3710-1H-6; Mabtech) following manufacture instruction. Human albumin levels in cell culture supernatants were measured by commercial ELISA (E88-129; Bethyl Laboratories) following manufactural instructions.

Intracellular APOB = Intracellular APOB protein by immunoblot; type: cell-based, human; settings: 2 μg/mL, 24 hours
Protocol: G. Human iPSC-derived hepatocytes were treated with 2 μg/mL of DL-1 or equivalent concentration of DMSO for 24 hours. […] (A) APOB mRNA level was determined using real-time qPCR. (B) Intracellular APOB, LDLR, and HSP90 protein levels were determined via immunoblot. (C) Quantification of biological replicates of immunoblots on samples treated as in (B). Data are shown as mean±SEM of four replicates (n=4).
C. Human iPSC-derived hepatocytes (iPSC-Heps) were treated with 2 μg/mL of DL-1 or equivalent concentration of DMSO for 24 hours. In FIG. 7A, APOB mRNA level was determined using real-time qPCR. In FIG. 7B Intracellular APOB, LDLR, and HSP90 protein levels were determined via immunoblot; Quantification of biological replicates of immunoblots. […] In FIG. 12A LDL uptake assay was performed by pre-treating cells with 2 μg/mL of DL-1, 20 μM of Atorvastatin, and equivalent concentration of DMSO for 24 hours followed by 4 hours of pHrodo-LDL exposure; LDL endocytosis was determined and quantified by fluorescence image; data are shown as mean±SD of triplicates (n=3). […]
Immunoprecipitation of cell lysates was performed using protein G magnet beads (ThermoFisher) and anti-APOB (LDL20/17, Mabtech) antibodies. […] Expression levels were quantified via integrated intensity normalized by 5% of input of each sample. […] Signals were detected using HRP-conjugated secondary antibodies. […]

SMILES: Sc1nc(S)nc(Nc2ccc(Nc3ccccc3)cc2)n1 (racemic) [DL-1, 6-{[4-(phenylamino)phenyl]amino}-1,3,5-triazine-2,4-dithiol]
- Solubility in 1.0 ml PBS buffer ([1]; 1 × PBS buffer): 25 µg
- Solubility in 1.0 ml water ([1]; water): 0.37 µg
- APOA level in culture medium, time course (APOA): without affecting albumin and APOA level
- intracellular APOB protein level (Intracellular APOB): no impact on APOB mRNA and intracellular protein levels
